# From patent US11458112B2, “Compositions and methods for inducing defecation” (Dignify Therapeutics, LLC, priority 2019, dated 2022)
# Marks after values point to notes of the source that are not given here.
# Legend:
# [1] = test system: conscious cSCI rats; test: Defecation in metabolism cages after intrarectal dosing in conscious chronic spinal cord injured rats; type: in vivo, rat; details: for Number of fecal pellets / Total fecal weight: 0.1 mL intrarectal, within 10 min of dosing, N=6, mean + SD
# Experimental: (§1) General: In vivo studies were performed in anesthetized, acute spinal cord injured (SCI) rats, anesthetized spinal intact rats, and awake chronic spinal cord injured rats. Adult female and male Sprague Dawley rats (Charles River, N.C.; 250-650 g) were housed at an AAALAC approved facility in cages (1-3/cage) with free access to water and food in a colony room that was maintained on a 12 hr/12 hr light/dark cycle.
# For chronic SCI model preparation, animals were anesthetized with a mixture of ketamine/xylazine (50-100 mg/kg and 5-10 mg/kg intraperitoneal, respectively), the skin and muscle on the dorsal side at the level of the thoracic vertebrae were incised, and the spinal cord was carefully exposed by a laminectomy and transected at either T3-T4 or T8-T10 spinal level. Gelfoam® was placed at the incision site and the muscle and skin overlying the vertebrae were closed with wound clips. The animal recovered from surgery for 7-10 weeks before being studied.
# Defecation in awake animals was monitored in metabolism cages. Animals were habituated to handling and the metabolism cages on 2-4 occasions prior to dosing and were then randomized to a treatment arm. Rats were weighed and placed into metabolism cages for 10 min prior to intrarectal administration of vehicle or capsaicin. The number of fecal pellets and timing of events were recorded by trained personnel that were blinded to treatment. Fecal weight is weighed at 10 and 30 min post dosing. Animals were re-tested 2-3 days later in a cross over design.
# (§2) Dosing: Intrarectal capsaicin was administered in a dose range of 0.1-2% wt/vol. Capsaicin was dissolved in 95% ethanol at 50-100 mg/mL and then diluted to 2-20 mg/mL with either saline or water to form a suspension and administered intrarectally as a solution using a micropipette, blunt tip tube (22 G) or as a small solution-soaked cotton ball (3-5 mm diameter). Vehicle doses were prepared using the same concentrations of ethanol in water or saline.
# Methods: Defecation in rats was monitored in metabolism cages. Chronic spinal cord injured (cSCI) rats were habituated to handling and the metabolism cages on 2-4 occasions before dosing, then randomized to the treatment arm. Rats were weighed and placed into metabolism cages for 10 min prior to receiving an intrarectal dose of vehicle or capsaicin. Since manual stimulation during intrarectal dosing in conscious rats can induce defecation, the tip of a small cotton swab was inserted into the anus prior to dose administration, to stimulate natural defecation of any fecal pellets that were located in the region of the anal sphincter. […] Once the anal sphincter had ceased contracting/relaxing (15-90 s) a fine catheter (22 G soft/flexible blunt tip catheter) was used to dose the vehicle or capsaicin, as this method produced little manual stimulation. Capsaicin was prepared as a 0.2 or 2% solution (2 or 20 mg/ml in diluted ethanol/water; vehicle corresponding to each dose concentration was 1.9 and 19% ethanol/water, respectively). Dose volumes were 0.1 mL and administered via the catheter inserted ˜1 inch through the anus into the rectum. The number of fecal pellets and timing of events were recorded by trained personnel blinded to the treatment. Fecal weight was recorded at 10 and 30 min post dosing. Animals were re-tested 2-3 days later in a cross over design.
# [2] = test system: healthy subjects and subjects having irritable bowel syndrome (IBS); details: concentrations of 0.01% and 0.1%, both groups; cited from earlier work
# [3] = test system: anesthetized spinal intact rats; test: Rectal pressure (balloon catheter) after intrarectal capsaicin solution in anesthetized spinal intact rats; type: in vivo, rat
# Experimental: as §1
# (§3) For all rectal contractility studies, animals were anesthetized with urethane (1.0-1.4 g/kg subcutaneous injection). Surgical procedures were then performed with the addition of isoflurane anesthesia (0.05-1.5% in O2) as needed.
# (§4) Rectal Contractility: Rectal pressures were measured via a latex balloon catheter (length 1.5-4 cm) inserted (˜4 cm) into the distal rectal region. The catheter was connected to a pressure monitoring system. […] Parameters measured included peak rectal pressure response, duration of time above baseline activity (in the 1st 5 min after drug administration), area under the curve (measured during the 1st 5 min after drug administration) and the number of contractile events after vehicle and drug administration.
# as §2
# Methods: Capsaicin was administered to anesthetized spinal intact male and female rats (N=4 males and 1 female) instrumented for rectal pressure recording via a balloon catheter inserted into the rectum 2-4 cm from the anus. Capsaicin was administered as 0.2% solution (0.05-0.32 mL of a 2 mg/ml solution in 4.7 or 9.5% ethanol/saline) via a PE50 tube that was inserted into the rectum alongside the balloon catheter. For comparison, vehicle was administered to all rats using the same techniques.
# Methods: Capsaicin was administered to an anesthetized spinal intact male rat instrumented for rectal pressure recording via a balloon catheter inserted into the rectum 2-4 cm from the anus. Capsaicin was administered as 0.2% solution (0.2%, 0.25 mL) in ethanol/saline via a PE50 tube that was inserted into the rectum alongside the balloon catheter. Vehicle was administered to all rats using the same techniques. Administration of capsaicin solution is indicated by filled arrow in FIG. 3.
# [4] = test system: anesthetized acute T9-transected SCI rats; test: Rectal pressure after intrarectal capsaicin-soaked cotton ball in anesthetized acute SCI rats; type: in vivo, rat; details: cotton ball soaked in 50 uL of 0.2% solution, 2 female rats
# Experimental: as §1
# For the acute SCI model, animals were anesthetized with urethane (1.0-1.4 g/kg subcutaneous injection), the skin and muscle on the dorsal side at the level of the thoracic vertebrae were incised, and the spinal cord was carefully exposed by a laminectomy and transected at T8-T10 spinal level. Gelfoam® was placed at the incision site and the muscle and skin overlying the vertebrae were closed with wound clips. The spinal cord was transected at least 60 min before starting the experimental protocol.
# as §3, §4
# Dosing: Intrarectal capsaicin was administered in a dose range of 0.1-2% wt/vol. […]
# Methods: Capsaicin was administered to 2 anesthetized acute T9-transected SCI female rats instrumented for rectal pressure recording via a balloon catheter inserted into the rectum 2-4 cm from the anus. […] Top and bottom traces in FIG. 4 were recorded from separate rats.
# [5] = 0.2% capsaicin solution intrarectal
# [6] = 0.2%, 0.25 mL intrarectal, one male rat (Example 3)
smiles,measurement,setting,value
"COc1cc(CNC(=O)CCCC/C=C/C(C)C)ccc1O [Capsaicin, 8-methyl-N-vanillyl-6-nonenamide]",number and total weight of fecal pellets expelled compared to vehicle,[1]; 0.2 or 2% intrarectal,significantly increased
same,time to completion of defecation,[1]; 0.2 or 2% intrarectal,≤ 10 min
same,time to defecation,[1]; 0.2 or 2% intrarectal,≤ 5 min
same,Number of fecal pellets,[1]; Capsaicin 0.2%,2.17 + 0.84 ^+
same,Total fecal weight,[1]; Capsaicin 0.2%,1.169 + 0.0489 g
same,Number of fecal pellets,[1]; Capsaicin 2%,2.00 + 0.68 ^+
same,Total fecal weight,[1]; Capsaicin 2%,1.265 + 0.414 * g
same,defecation between 10-30 min post-dosing,[1]; any group,No defecation was observed
same,reported sensations following intrarectal administration,[2],"discomfort and “an urge to defecate”, but not defecation"
same,response to repeat dosing,[3]; 0.2% capsaicin repeated 20 min after the initial dose,evoked a similar response
same,duration of rectal pressure increase,[3]; [5],5 min
same,onset time of rectal pressure increase,[3]; [5],1 to 2 min
same,rats with transient rectal pressure increase,"[3]; 0.2% capsaicin solution intrarectal, 0.05-0.32 mL, N=4 males and 1 female",5 of 5
same,expulsion of rectal balloon catheter,[3]; [6],expelled from the rectum through the anus
same,onset of increase in rectal pressure,[3]; [6],≤ 1 min
same,duration of rectal pressure increase,[4],< 5 min
same,onset of rectal pressure increase,[4],< 2 min
same,rats with capsaicin-induced rectal pressure increase,[4],both rats
